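The compound was tested at five concentrations on cells cultured in 96-well plates, with a 48-hour exposure period. At the GI50, growth is halved. TGI denotes the concentration required for complete inhibition of growth.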 Where a SMILES comes first, the peptide text is derived from it. [ ]: non-standard residue; d: D form. The star is where a group is joined. NMeF = CN[C@@H](Cc1ccccc1)C(=O)O; NMeV = CN[C@H](C(=O)O)C(C)C; Boc = CC(C)(C)OC(=O)*; OBn = c1ccc(CO*)cc1
Experiments:
Experiment in all cases: NCI tumour cell line growth inhibition, 48 h
[1] = tested on: A498 renal
[2] = tested on: DLD-1 colon
[3] = tested on: IGROV1 ovarian
[4] = tested on: LXFL 529 NSCLC
[5] = tested on: NCI-H23 lung
[6] = tested on: OVCAR-4 ovarian
[7] = tested on: OVCAR-8 ovarian
[8] = tested on: MCF7 breast
[9] = tested on: MDA-MB-435
[10] = tested on: PC-3 prostate

SMILES: COc1ccc(-c2cc(-c3cc(C)ccc3O)[nH]c(=O)n2)cc1
- TGI [1]: > 100 µM
- TGI [2]: > 100 µM
- TGI [3]: > 100 µM
- TGI [4]: > 100 µM
- TGI [5]: > 100 µM
- TGI [6]: > 100 µM
- TGI [7]: > 100 µM

SMILES: CCC1CC(C)=CCN1S(=O)(=O)c1ccc(C)cc1 (centres undefined)
- TGI [1]: > 100 µM
- TGI [4]: > 100 µM
- TGI [6]: > 100 µM
- TGI [7]: > 100 µM

SMILES: Brc1ccccc1C=NC12CC3CC(CC(C3)C1)C2
- TGI [1]: > 100 µM
- TGI [2]: > 100 µM
- TGI [3]: > 100 µM
- TGI [4]: > 100 µM
- TGI [8]: > 100 µM
- TGI [9]: > 100 µM
- TGI [5]: > 100 µM
- TGI [6]: > 100 µM
- TGI [7]: > 100 µM
- TGI [10]: > 100 µM

SMILES: COc1ccc(C(=O)CC(=O)C(=O)Nc2ccc(C)c(C)c2)cc1
- TGI [1]: > 100 µM
- TGI [2]: > 100 µM
- TGI [3]: > 100 µM
- TGI [4]: > 100 µM
- TGI [5]: > 100 µM
- TGI [6]: > 100 µM
- TGI [7]: > 100 µM

SMILES: CCCCCNC(=O)c1c(O)[nH]c(=S)[nH]c1=O
- TGI [1]: > 100 µM
- TGI [3]: > 100 µM
- TGI [4]: > 100 µM
- TGI [5]: > 100 µM
- TGI [6]: > 100 µM
- TGI [7]: > 100 µM

SMILES: CCOC(=O)C(=O)Nc1c(C)cccc1C(C)C
- TGI [1]: > 100 µM
- TGI [2]: > 100 µM
- TGI [3]: > 100 µM
- TGI [4]: > 100 µM
- TGI [5]: > 100 µM
- TGI [6]: > 100 µM
- TGI [7]: > 100 µM

SMILES: CCOC(=O)C(C(=O)OCC)=C1N[C@H](C(=O)OCC)CS1
- TGI [2]: > 100 µM
- TGI [3]: > 100 µM
- TGI [4]: > 100 µM
- TGI [5]: > 100 µM
- TGI [6]: > 100 µM
- TGI [7]: > 100 µM

SMILES: COc1ccccc1C(N)c1ccccc1 (centres undefined)
- TGI [1]: > 100 µM
- TGI [2]: > 100 µM
- TGI [3]: > 100 µM
- TGI [4]: > 100 µM
- TGI [5]: > 100 µM
- TGI [6]: > 100 µM
- TGI [7]: > 100 µM

SMILES: CCOC(=O)N[C@@H]1C2CC(=O)C(O2)[C@@H]1OC (some centres undefined)
- TGI [2]: > 100 µM
- TGI [3]: > 100 µM
- TGI [5]: > 100 µM
- TGI [6]: > 100 µM
- TGI [7]: > 100 µM

SMILES: COC(=O)CS(=O)c1ccccc1 (centres undefined)
- TGI [1]: > 100 µM
- TGI [2]: > 100 µM
- TGI [3]: 54 µM
- TGI [4]: > 100 µM
- TGI [5]: > 100 µM
- TGI [6]: > 100 µM
- TGI [7]: 87.9 µM

SMILES: c1ccc(CN2CCCCC(Sc3ccccc3)CC2)cc1 (centres undefined)
- TGI [1]: > 100 µM
- TGI [2]: 41.7 µM
- TGI [3]: > 100 µM
- TGI [4]: 32.6 µM
- TGI [5]: 64.3 µM
- TGI [6]: > 100 µM
- TGI [7]: > 100 µM

SMILES: COc1ccc(C(=O)C(C(=O)C(=O)NC2C3CC4CC(C3)CC2C4)c2ccc(OC)cc2)cc1 (centres undefined)
- TGI [1]: > 100 µM
- TGI [2]: > 100 µM
- TGI [3]: > 100 µM
- TGI [4]: > 100 µM
- TGI [5]: > 100 µM
- TGI [6]: > 100 µM
- TGI [7]: > 100 µM

SMILES: CCCCCCCCCCCCCCCCCC(=O)OCC(C[As](=O)(O)O)OC(=O)CCCCCCCCCCCCCCCCC (centres undefined)
- TGI [1]: > 100 µM
- TGI [2]: > 100 µM
- TGI [3]: > 100 µM
- TGI [4]: > 100 µM
- TGI [5]: > 100 µM
- TGI [6]: > 100 µM
- TGI [7]: > 100 µM

SMILES: O=C1/C(=C/c2ccccc2F)CN(C(=O)C(Cl)Cl)C/C1=C\c1ccccc1F
- GI50 [1]: 1.54 µM
- TGI [1]: 3.14 µM
- GI50 [3]: 0.351 µM
- TGI [3]: 1.44 µM
- GI50 [8]: 0.101 µM
- TGI [8]: 0.983 µM
- GI50 [9]: 0.313 µM
- TGI [9]: 1.01 µM
- GI50 [5]: 0.389 µM
- TGI [5]: 1.56 µM
- GI50 [6]: 0.526 µM
- TGI [6]: 1.83 µM
- GI50 [7]: 0.313 µM
- TGI [7]: 1.11 µM
- GI50 [10]: 0.296 µM
- TGI [10]: 1.08 µM

SMILES: CC(C)[C@@H](C(=O)N1CCC[C@H]1C(=O)OCc1ccccc1)N(C)C(=O)[C@H](C(C)C)N(C)C(=O)[C@H](Cc1ccccc1)N(C)C(=O)[C@H](NC(=O)OC(C)(C)C)C(C)C (Boc-[dV][NMeF][NMeV][NMeV]P-OBn)
- TGI [1]: > 100 µM
- TGI [2]: > 100 µM
- TGI [3]: > 100 µM
- TGI [4]: > 100 µM
- TGI [8]: > 50 µM
- TGI [9]: > 50 µM
- TGI [5]: > 50 µM
- TGI [6]: > 100 µM
- TGI [7]: > 100 µM
- TGI [10]: > 50 µM

SMILES: COC1=CC(c2ccc[nH]2)=N/C1=C\c1[nH]c(C)c(C(C)=O)c1C
- GI50 [1]: 18.1 µM
- TGI [1]: 57 µM
- GI50 [3]: 0.696 µM
- TGI [3]: > 100 µM
- GI50 [8]: 1.05 µM
- TGI [8]: > 100 µM
- GI50 [9]: 0.299 µM
- TGI [9]: > 100 µM
- GI50 [5]: 5.12 µM
- TGI [5]: > 100 µM
- GI50 [6]: 3.51 µM
- TGI [6]: > 100 µM
- GI50 [7]: 0.326 µM
- TGI [7]: > 100 µM
- GI50 [10]: 0.302 µM
- TGI [10]: > 100 µM
